Measurements: publication PMC6532841 (PLoS Genetics, 2019)

Legend:
Experiment in all cases: cAMP inhibition assay (ALPHAScreen), transfected CHO-K1
Format in all cases: cell-based
[1] = target: T1, mouse HCA2 (Mus musculus, UniProt Q9EP66)
T1 construct: gene Hcar2; full-length, N-terminal HA and C-terminal FLAG tag, CHO-K1
Source text: cAMP inhibition assay (ALPHAScreen), transfected CHO-K1 on mouse HCA2

[2] = target: T2, orangutan HCA2 (Pongo abelii, UniProt A0A8I5YUU0)
T2 construct: gene HCAR2; full-length, HA/FLAG tags, CHO-K1
Source text: cAMP inhibition assay (ALPHAScreen), transfected CHO-K1 on orangutan HCA2

[3] = target: T3, human HCA2 (Homo sapiens, UniProt Q8TDS4); conditions: read-out: HCA3 / Basal cAMP (% of mock-transfected)
T3 construct: gene HCAR2; full-length, N-terminal HA and C-terminal FLAG tag, pcDps, transient in CHO-K1
Source text: cAMP inhibition assay (ALPHAScreen), transfected CHO-K1 on human HCA2

[4] = target: T4, human HCA3 (Homo sapiens, UniProt P49019); conditions: read-out: EC50 (μM) (95% CI)
T4 construct: gene HCAR3; full-length, N-terminal HA and C-terminal FLAG tag, pcDps, transient in CHO-K1
Source text: cAMP inhibition assay (ALPHAScreen), transfected CHO-K1 on human HCA3

[5] = target: T5, chimpanzee HCA3 (Pan troglodytes, UniProt A0A2J8MD62); conditions: agonist; 2 μM forskolin; HBSS
T5 construct: gene HCAR3; full-length, HA/FLAG tags, CHO-K1
Source text: cAMP inhibition assay (ALPHAScreen), transfected CHO-K1 on chimpanzee HCA3

[6] = target: T6, siamang HCA3 (Symphalangus syndactylus, UniProt Z9POU2MJD9); conditions: read-out: EC50 (μM) (95% CI)
T6 construct: full-length, HA/FLAG tags, CHO-K1
Source text: cAMP inhibition assay (ALPHAScreen), transfected CHO-K1 on siamang HCA3

[7] = target: T7, orangutan HCA3 (Pongo pygmaeus, UniProt A0A4Y1JWR4); conditions: read-out: EC50 (μM) (95% CI)
T7 construct: gene HCAR3; full-length, HA/FLAG tags, CHO-K1
Source text: cAMP inhibition assay (ALPHAScreen), transfected CHO-K1 on orangutan HCA3

[8] = target: T8, mouse HCA1 (Mus musculus, UniProt Q8C131)
T8 construct: gene Hcar1; full-length, N-terminal HA and C-terminal FLAG tag, CHO-K1
T8 sequence (Q8C131 1-343): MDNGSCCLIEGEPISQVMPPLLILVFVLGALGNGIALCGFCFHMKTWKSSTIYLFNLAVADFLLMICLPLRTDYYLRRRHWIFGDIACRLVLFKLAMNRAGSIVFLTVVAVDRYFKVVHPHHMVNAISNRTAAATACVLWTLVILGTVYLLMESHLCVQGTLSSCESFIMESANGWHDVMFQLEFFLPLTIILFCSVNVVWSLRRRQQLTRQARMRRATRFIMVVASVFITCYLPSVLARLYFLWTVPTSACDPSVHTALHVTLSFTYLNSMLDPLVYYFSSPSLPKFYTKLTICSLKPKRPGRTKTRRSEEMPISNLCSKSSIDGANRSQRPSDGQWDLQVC
Source text: cAMP inhibition assay (ALPHAScreen), transfected CHO-K1 on mouse HCA1

[9] = target: T9, gorilla HCA1 (Gorilla gorilla, UniProt A0A2I2YNR0)
T9 construct: gene HCAR1; full-length, HA/FLAG tags, CHO-K1
Source text: cAMP inhibition assay (ALPHAScreen), transfected CHO-K1 on gorilla HCA1

[10] = target: T10, chimpanzee HCA1 (Pan troglodytes, UniProt A0A2I3T0E0)
T10 construct: gene HCAR1; full-length, HA/FLAG tags, CHO-K1
Source text: cAMP inhibition assay (ALPHAScreen), transfected CHO-K1 on chimpanzee HCA1

[11] = target: T11, human HCA1 (Homo sapiens, UniProt Q9BXC0); conditions: read-out: HCA2 / Basal cAMP (% of mock-transfected)
T11 construct: gene HCAR1; full-length, N-terminal HA and C-terminal FLAG tag, pcDps, transient in CHO-K1
Source text: cAMP inhibition assay (ALPHAScreen), transfected CHO-K1 on human HCA1

T9 sequence (A0A2I2YNR0 1-346): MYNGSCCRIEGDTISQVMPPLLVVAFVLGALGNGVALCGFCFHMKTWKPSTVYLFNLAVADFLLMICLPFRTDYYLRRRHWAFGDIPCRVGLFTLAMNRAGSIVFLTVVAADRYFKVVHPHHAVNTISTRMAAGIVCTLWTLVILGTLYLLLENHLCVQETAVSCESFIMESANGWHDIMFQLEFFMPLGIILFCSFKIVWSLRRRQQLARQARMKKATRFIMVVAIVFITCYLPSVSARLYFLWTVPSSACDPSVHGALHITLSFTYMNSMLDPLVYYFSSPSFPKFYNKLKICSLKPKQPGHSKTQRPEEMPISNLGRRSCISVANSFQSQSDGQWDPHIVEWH
T7 sequence (A0A4Y1JWR4 1-363): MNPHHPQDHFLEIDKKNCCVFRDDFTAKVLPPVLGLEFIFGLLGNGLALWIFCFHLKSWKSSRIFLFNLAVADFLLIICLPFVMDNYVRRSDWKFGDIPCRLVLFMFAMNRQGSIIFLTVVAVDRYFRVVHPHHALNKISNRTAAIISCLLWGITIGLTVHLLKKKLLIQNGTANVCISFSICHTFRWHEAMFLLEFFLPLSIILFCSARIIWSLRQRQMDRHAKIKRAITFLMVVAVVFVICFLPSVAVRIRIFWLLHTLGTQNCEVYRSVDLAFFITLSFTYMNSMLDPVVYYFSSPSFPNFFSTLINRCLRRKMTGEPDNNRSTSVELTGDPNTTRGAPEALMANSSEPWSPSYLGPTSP
T4 sequence (P49019 whole entry): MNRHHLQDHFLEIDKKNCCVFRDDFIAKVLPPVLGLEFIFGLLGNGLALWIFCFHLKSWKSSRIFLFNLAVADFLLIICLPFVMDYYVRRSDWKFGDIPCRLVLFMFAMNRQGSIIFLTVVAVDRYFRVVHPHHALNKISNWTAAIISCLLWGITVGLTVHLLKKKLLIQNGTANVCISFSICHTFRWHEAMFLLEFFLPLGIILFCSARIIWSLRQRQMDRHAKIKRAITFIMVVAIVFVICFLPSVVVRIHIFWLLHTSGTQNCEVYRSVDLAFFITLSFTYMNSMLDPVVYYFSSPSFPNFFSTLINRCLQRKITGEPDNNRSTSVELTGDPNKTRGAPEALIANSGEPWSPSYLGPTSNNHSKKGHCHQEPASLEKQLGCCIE
T10 sequence (A0A2I3T0E0 1-346): as the sequence (A0A2I2YNR0 1-346) above, with V23I, S249L counted along it
T2 sequence (A0A8I5YUU0 1-363): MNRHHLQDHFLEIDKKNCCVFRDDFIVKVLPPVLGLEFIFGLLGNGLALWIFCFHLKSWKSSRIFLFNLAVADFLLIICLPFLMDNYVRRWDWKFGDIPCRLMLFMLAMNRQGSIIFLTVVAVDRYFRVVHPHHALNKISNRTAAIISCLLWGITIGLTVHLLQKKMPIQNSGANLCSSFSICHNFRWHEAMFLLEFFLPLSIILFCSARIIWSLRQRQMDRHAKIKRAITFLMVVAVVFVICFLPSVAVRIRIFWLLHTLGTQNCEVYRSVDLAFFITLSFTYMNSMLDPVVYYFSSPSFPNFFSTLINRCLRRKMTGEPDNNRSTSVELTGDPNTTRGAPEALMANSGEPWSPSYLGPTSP
T3 sequence (Q8TDS4 whole entry): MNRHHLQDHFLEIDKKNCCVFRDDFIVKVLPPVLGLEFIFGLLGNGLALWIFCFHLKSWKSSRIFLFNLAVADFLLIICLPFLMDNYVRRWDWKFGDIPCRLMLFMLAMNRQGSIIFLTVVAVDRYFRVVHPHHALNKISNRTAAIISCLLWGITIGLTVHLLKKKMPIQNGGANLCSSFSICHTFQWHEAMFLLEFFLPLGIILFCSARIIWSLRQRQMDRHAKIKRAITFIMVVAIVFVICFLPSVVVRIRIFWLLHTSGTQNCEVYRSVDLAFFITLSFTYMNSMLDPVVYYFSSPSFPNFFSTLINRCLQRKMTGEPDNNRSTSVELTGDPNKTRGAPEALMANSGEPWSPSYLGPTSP
T1 sequence (Q9EP66 whole entry): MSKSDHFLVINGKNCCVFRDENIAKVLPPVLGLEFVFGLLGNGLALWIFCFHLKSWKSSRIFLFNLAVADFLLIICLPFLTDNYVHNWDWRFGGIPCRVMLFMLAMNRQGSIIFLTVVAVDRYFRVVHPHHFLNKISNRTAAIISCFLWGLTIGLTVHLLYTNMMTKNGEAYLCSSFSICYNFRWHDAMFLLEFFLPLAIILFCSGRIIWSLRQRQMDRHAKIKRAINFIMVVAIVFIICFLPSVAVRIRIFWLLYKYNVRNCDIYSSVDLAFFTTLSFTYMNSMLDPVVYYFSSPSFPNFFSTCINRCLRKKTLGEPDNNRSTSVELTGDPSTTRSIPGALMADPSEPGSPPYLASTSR
T11 sequence (Q9BXC0 whole entry): as the sequence (A0A2I2YNR0 1-346) above, with V23I, M131V, T141A, L148V counted along it

What does the source list for `C[C@@H](O)CC(=O)O` [D-3HB]?
EC50 [1]: 1.03 mM; EC50 [2]: 680 µM; EC50 [3]: 530 µM

For `O=C(O)[C@H](O)Cc1ccccc1` [D-PLA], which EC50 [4] is on record?
The EC50 was 0.15 µM.

And the “EC50 (μM) (95% CI)” value [5]?
The value was 0.13 (0.08–0. 22) μM.

And the EC50 [6]?
The EC50 was 0.28 µM.

What about the EC50 [7] of the same compound?
The EC50 was 1.2 µM.

Which EC50 [8] does the source give for `C[C@H](O)C(=O)O` [L-lactate] here?
The EC50 was 2.9 mM.

And the EC50 [9]?
Its EC50 is 2.3 mM.

And the EC50 [10]?
The EC50 was 4.1 mM.

What about the EC50 [11] of the same compound?
The EC50 was 2.4 mM.
